System: polymicrobial inoculum taken from dental plaque
Assay: Inhibition of growth of a polymicrobial inoculum, diffusion in solid agar medium
Format: cell-based
Conditions: freshly prepared samples
Excerpt: The activity of these two cements was verified on freshly prepared samples of cement and samples prepared 13 days previously.

With `[Ca+2].[OH-].[OH-]` [Ca(OH)2, calcium hydroxide] as the compound, how does the “RIZ (relative inhibition zone, compared with freshly prepared pure calcium hydroxide)” value read?
The value was 1.

From patent US8268278B2, “Phosphorus-calcium-strontium compound and uses thereof in endodontic cements” (Centre National de la Recherche Scientifique, priority 2006, dated 2012)
